From ChEMBL document CHEMBL1201862, “PubChem BioAssay data set” (2004)
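A five-concentration, 48-hour dose response in 96-well plates underlies each endpoint, interpolated linearly between surrounding concentrations. At the GI50, growth is halved.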 Calls of active or inactive are those of the source. No stated cut-off is given here; in the data, active = GI50 up to about 1.1 µM and inactive = higher.

Key:
Test in all cases: inhibition of tumour cell growth, NCI panel, 48 h
786-0 = system: 786-0
OVCAR-8 = system: OVCAR-8
RPMI-8226 = system: RPMI-8226
HT-29 = system: HT-29
EKVX = system: EKVX
UACC-257 = system: UACC-257
TK-10 = system: TK-10
HL-60 = system: HL-60
BT-549 = system: BT-549
MOLT-4 = system: MOLT-4
OVCAR-5 = system: OVCAR-5
SK-MEL-5 = system: SK-MEL-5
SF-268 = system: SF-268
HOP-62 = system: HOP-62
IGROV-1 = system: IGROV-1
MDA-MB-231 = system: MDA-MB-231
T47D = system: T47D
SN12C = system: SN12C
M14 = system: M14
HCC 2998 = system: HCC 2998
K562 = system: K562
SF-539 = system: SF-539
CCRF-CEM = system: CCRF-CEM
NCI-H23 = system: NCI-H23
HCT-116 = system: HCT-116
NCI-H226 = system: NCI-H226
MCF7 = system: MCF7
U-251 = system: U-251
MDA-N = system: MDA-N
Malme-3M = system: Malme-3M
CAKI-1 = system: CAKI-1
SR = system: SR
COLO 205 = system: COLO 205
KM12 = system: KM12
MDA-MB-435 = system: MDA-MB-435
SNB-19 = system: SNB-19
UACC-62 = system: UACC-62
OVCAR-3 = system: OVCAR-3
ACHN = system: ACHN
NCI/ADR-RES = system: NCI/ADR-RES
SW-620 = system: SW-620
SNB-75 = system: SNB-75
RXF 393 = system: RXF 393
SK-MEL-28 = system: SK-MEL-28
NCI-H522 = system: NCI-H522
A549 = system: A549
SK-OV-3 = system: SK-OV-3
PC-3 = system: PC-3
LOX IMVI = system: LOX IMVI
SF-295 = system: SF-295
DU-145 = system: DU-145
UO-31 = system: UO-31
HCT-15 = system: HCT-15
NCI-H460 = system: NCI-H460
HOP-92 = system: HOP-92
A498 = system: A498
OVCAR-4 = system: OVCAR-4
Hs-578T = system: Hs-578T
SK-MEL-2 = system: SK-MEL-2

Compound: CN1CN(c2ccccc2)C2(CCN(CCC3COc4ccccc4O3)CC2)C1=O (stereo unspecified)
- GI50 (786-0): 36.4 µM (inactive)
- GI50 (OVCAR-8): 32.9 µM (inactive)
- GI50 (RPMI-8226): 17.8 µM (inactive)
- GI50 (HT-29): 3.88 µM (inactive)
- GI50 (EKVX): 10.3 µM (inactive)
- GI50 (UACC-257): 12.5 µM (inactive)
- GI50 (TK-10): 17.7 µM (inactive)
- GI50 (HL-60): 19.6 µM (inactive)
- GI50 (BT-549): 18 µM (inactive)
- GI50 (MOLT-4): 17 µM (inactive)
- GI50 (OVCAR-5): 18.6 µM (inactive)
- GI50 (SK-MEL-5): 12.9 µM (inactive)
- GI50 (SF-268): 33.8 µM (inactive)
- GI50 (HOP-62): > 10 µM (inactive)
- GI50 (IGROV-1): 17.6 µM (inactive)
- GI50 (MDA-MB-231): 31.9 µM (inactive)
- GI50 (T47D): 4.65 µM (inactive)
- GI50 (SN12C): 27.7 µM (inactive)
- GI50 (M14): 15.6 µM (inactive)
- GI50 (HCC 2998): 8.07 µM (inactive)
- GI50 (K562): 20.1 µM (inactive)
- GI50 (SF-539): 18.8 µM (inactive)
- GI50 (CCRF-CEM): 17.9 µM (inactive)
- GI50 (NCI-H23): 30.4 µM (inactive)
- GI50 (HCT-116): 5.92 µM (inactive)
- GI50 (NCI-H226): 27.9 µM (inactive)
- GI50 (MCF7): 5.27 µM (inactive)
- GI50 (U-251): 27.5 µM (inactive)
- GI50 (MDA-N): 19.8 µM (inactive)
- GI50 (Malme-3M): 19.5 µM (inactive)
- GI50 (CAKI-1): 28.2 µM (inactive)
- GI50 (SR): 20.9 µM (inactive)
- GI50 (COLO 205): 5.6 µM (inactive)
- GI50 (KM12): 24.7 µM (inactive)
- GI50 (MDA-MB-435): 24.2 µM (inactive)
- GI50 (SNB-19): 19.9 µM (inactive)
- GI50 (UACC-62): 27.5 µM (inactive)
- GI50 (OVCAR-3): 19.9 µM (inactive)
- GI50 (ACHN): 18.1 µM (inactive)
- GI50 (NCI/ADR-RES): 19.7 µM (inactive)
- GI50 (SW-620): 22 µM (inactive)
- GI50 (SNB-75): 38.2 µM (inactive)
- GI50 (RXF 393): 31.1 µM (inactive)
- GI50 (SK-MEL-28): 19.6 µM (inactive)
- GI50 (NCI-H522): 13.8 µM (inactive)
- GI50 (A549): 33.1 µM (inactive)
- GI50 (SK-OV-3): 26.6 µM (inactive)
- GI50 (PC-3): 27.8 µM (inactive)
- GI50 (LOX IMVI): 23 µM (inactive)
- GI50 (SF-295): 21.4 µM (inactive)
- GI50 (DU-145): 14.9 µM (inactive)
- GI50 (UO-31): 13.5 µM (inactive)
- GI50 (HCT-15): 24.8 µM

Compound: CC(=O)NCCc1c(-c2[nH]c3ccccc3c2CCNC(C)=O)[nH]c2ccccc12
- GI50 (786-0): 35.7 µM (inactive)
- GI50 (NCI-H460): 42.2 µM (inactive)
- GI50 (OVCAR-8): 78.2 µM (inactive)
- GI50 (RPMI-8226): > 100 µM (inactive)
- GI50 (HT-29): > 100 µM (inactive)
- GI50 (EKVX): > 100 µM (inactive)
- GI50 (UACC-257): > 100 µM (inactive)
- GI50 (TK-10): 92.7 µM (inactive)
- GI50 (BT-549): > 100 µM (inactive)
- GI50 (MOLT-4): > 100 µM (inactive)
- GI50 (HOP-92): 22.2 µM (inactive)
- GI50 (OVCAR-5): 66.7 µM (inactive)
- GI50 (SK-MEL-5): > 100 µM (inactive)
- GI50 (SF-268): > 100 µM (inactive)
- GI50 (A498): 74.8 µM (inactive)
- GI50 (HOP-62): 85.7 µM (inactive)
- GI50 (IGROV-1): 24.6 µM (inactive)
- GI50 (MDA-MB-231): 82.4 µM (inactive)
- GI50 (SN12C): > 100 µM (inactive)
- GI50 (HCC 2998): > 100 µM (inactive)
- GI50 (OVCAR-4): 49.2 µM (inactive)
- GI50 (K562): > 100 µM (inactive)
- GI50 (SF-539): 74.5 µM (inactive)
- GI50 (CCRF-CEM): > 100 µM (inactive)
- GI50 (Hs-578T): 40.1 µM (inactive)
- GI50 (NCI-H23): > 100 µM (inactive)
- GI50 (HCT-116): > 100 µM (inactive)
- GI50 (NCI-H226): > 100 µM (inactive)
- GI50 (MCF7): > 100 µM (inactive)
- GI50 (U-251): > 100 µM (inactive)
- GI50 (MDA-N): > 100 µM (inactive)
- GI50 (CAKI-1): > 100 µM (inactive)
- GI50 (SR): > 100 µM (inactive)
- GI50 (COLO 205): > 100 µM (inactive)
- GI50 (MDA-MB-435): > 100 µM (inactive)
- GI50 (SNB-19): > 100 µM (inactive)
- GI50 (UACC-62): > 100 µM (inactive)
- GI50 (OVCAR-3): > 100 µM (inactive)
- GI50 (ACHN): 66.7 µM (inactive)
- GI50 (NCI/ADR-RES): 87.1 µM (inactive)
- GI50 (SW-620): > 100 µM (inactive)
- GI50 (SNB-75): 47.6 µM (inactive)
- GI50 (RXF 393): > 100 µM (inactive)
- GI50 (SK-MEL-28): > 100 µM (inactive)
- GI50 (SK-MEL-2): > 100 µM (inactive)
- GI50 (A549): > 100 µM (inactive)
- GI50 (SK-OV-3): 51.2 µM (inactive)
- GI50 (PC-3): > 100 µM (inactive)
- GI50 (LOX IMVI): > 100 µM (inactive)
- GI50 (SF-295): > 100 µM (inactive)
- GI50 (DU-145): > 100 µM (inactive)
- GI50 (UO-31): > 100 µM (inactive)
- GI50 (HCT-15): > 100 µM
